For one data set, the system named is visual system. Particulars: systemic administration to mammals (Goto et al. 2003, rats); cited from earlier work.
Data set [1] relates to Sod1tm1Leb/J mouse retina. The format is in vivo, mice. Particulars: 250 mg/kg IP once daily from three days before paraquat; 0.75 mM intravitreal paraquat; ERG days 1 and 7; n=4. The text has this: In furtherance of the in vitro results of Example 1 we carried out an in vivo experiment examining the ability of valproic acid to protect against oxidative insult (oxidative stress) to mammalian retina. We used a murine model in which oxidative stress is induced by pre-dosing with intravitreal paraquat in Sod1^tm1Leb/J mouse model (as set forth in Dong A., et al., Superoxide Dismutase 1 Protects Retinal Cells From Oxidative Damage, J Cell Physio 208:516-526, 2006).
C57BL6 mice heterozygous from the SOD1 gene were obtained from Jackson labs (strain B6;129S7-Sod1tm1Leb/J). The mice were 3-4 months of age at the time of the experiment. […]
ERG recording were measured on dark adapted animals on days 1 and 7 post paraquat injection using an Espion ERG Diagnosys system and Burian-Allen electrodes, 3.0 mm diameter from LKC Technologies, Inc. For ERG recordings mice were anesthetized with ketamine (100 mg/kg) plus xylazine (50 mg/kg) administered IP and pupils dilated with 1% Akpentolate (cyclopentolate hydrochloride) and 10% AK-Dilate (phenylephrine hydrochloride). […] Scotopic ERGs were recorded using a 0.001, 0.01, and 1 cd·s/m2 flash as well as a 20 Hz flicker with the animal on a heating pad. A-wave, B-wave amplitudes were then calculated and statistically significant changes between valproic treated and non-treated animals determined using T test, n=4.

For data set [2] the following is noted: cited from earlier work.

As for `CCCC(CCC)C(=O)O` [valproic acid, 2-propylpentanoic acid], the “effect on ERG a- and b-wave amplitudes and VEP” value in the data set on visual system was “suppress ERG a- and b-wave amplitudes as well as VEP”. In addition, in data set [1], the “effect on paraquat induced decrease in ERG B-wave amplitude” value is “significantly inhibited paraquat induced decrease in B-wave amplitude”.

For `CCCC(CCC)C(=O)[O-].[Na+]` [sodium valproate], the water solubility entry in data set [2] is listed as “highly water soluble”.

The record behind these values is patent publication US20130237602A1, “VALPROIC ACID DRUG DELIVERY SYSTEMS AND INTRAOCULAR THERAPEUTIC USES THEREOF” (ALLERGAN, INC., priority 2009, published 2013).
